Assay type in all cases: functional
For assay [1], the target named is Ephrin type-A receptor 2 (Homo sapiens, UniProt P29317).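 Also: EPHA2 tested as one member of a kinome-wide kinase panel.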
The target in assay [2] is Receptor tyrosine-protein kinase erbB-4 (Homo sapiens, UniProt Q15303).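 Also: ERBB4 member of a kinome-wide kinase profiling panel.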
The target in assay [3] is Casein kinase I isoform delta (Homo sapiens, UniProt P48730).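 Also: measured as one member (CSNK1D) of a kinome panel.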
Assay [4] concerns the target Serine/threonine-protein kinase PLK1 (Homo sapiens, UniProt P53350).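 Also: PLK1 measured as one member of a kinome-wide profiling panel.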
Assay [5] addresses 3-phosphoinositide-dependent protein kinase 1 (Homo sapiens, UniProt O15530).
Assay [6] addresses MAP kinase-activated protein kinase 2 (Homo sapiens, UniProt P49137).
Assay [7] has as its target Serine/threonine-protein kinase Chk2 (Homo sapiens, UniProt O96017).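 Also: CHEK2 entry within a kinome-wide screening panel.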
Assay [8] has as its target Cyclin-dependent kinase 1 (Homo sapiens, UniProt P06493).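 Also: Kinome-wide panel profiling, with the target listed as panel member CDC2.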
Assay [9] addresses Serine/threonine-protein kinase D2 (Homo sapiens, UniProt Q9BZL6).
Assay [10] addresses Proto-oncogene tyrosine-protein kinase Src (Homo sapiens, UniProt P12931).
The target in assay [11] is Cyclin-dependent kinase 2 (Homo sapiens, UniProt P24941).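 Also: CDK2 measured as one member of a broad kinome profiling panel.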
For assay [12], the target named is MAP kinase-activated protein kinase 3 (Homo sapiens, UniProt Q16644).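 Also: value comes from a kinome-wide profiling panel in which MAPKAPK3 is one of the panel members.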
The target of assay [13] is Serine/threonine-protein kinase pim-2 (Homo sapiens, UniProt Q9P1W9).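 Also: value comes from a broad kinase panel profiling study in which PIM2 was one of the panel members.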
Assay [14] addresses Inhibitor of nuclear factor kappa-B kinase subunit alpha (Homo sapiens, UniProt O15111).
In assay [15] the target is Interleukin-1 receptor-associated kinase 4 (Homo sapiens, UniProt Q9NWZ3).
Assay [16] deals with Mitogen-activated protein kinase 1 (Homo sapiens, UniProt P28482).
The target in assay [17] is Tyrosine-protein kinase Lyn (Homo sapiens, UniProt P07948).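 Also: lyn as one member of a kinase panel.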
For assay [18], the target named is Serine/threonine-protein kinase MRCK alpha (Homo sapiens, UniProt Q5VT25).
Assay [19] concerns the target Serine/threonine-protein kinase 17A (Homo sapiens, UniProt Q9UEE5).
In assay [20] the target is Tyrosine-protein kinase BTK (Homo sapiens, UniProt Q06187).
In assay [21] the target is Focal adhesion kinase 1 (Homo sapiens, UniProt Q05397).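 Also: measured as one member of a kinome panel.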
Assay [22] deals with Macrophage-stimulating protein receptor (Homo sapiens, UniProt Q04912). The assay can be described thus: Navigating the Kinome. Panel member name: MST1R.
Sequence of Macrophage-stimulating protein receptor (Q04912 25-304 limits assumed): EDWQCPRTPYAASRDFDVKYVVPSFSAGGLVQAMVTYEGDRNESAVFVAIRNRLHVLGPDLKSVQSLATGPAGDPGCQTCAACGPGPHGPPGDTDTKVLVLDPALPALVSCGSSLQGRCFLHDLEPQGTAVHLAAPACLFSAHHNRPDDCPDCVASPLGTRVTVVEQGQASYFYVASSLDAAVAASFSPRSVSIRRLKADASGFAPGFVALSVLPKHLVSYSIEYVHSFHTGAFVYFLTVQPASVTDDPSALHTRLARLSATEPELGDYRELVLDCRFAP
Sequence of Macrophage-stimulating protein receptor (Q04912 310-1400 limits assumed): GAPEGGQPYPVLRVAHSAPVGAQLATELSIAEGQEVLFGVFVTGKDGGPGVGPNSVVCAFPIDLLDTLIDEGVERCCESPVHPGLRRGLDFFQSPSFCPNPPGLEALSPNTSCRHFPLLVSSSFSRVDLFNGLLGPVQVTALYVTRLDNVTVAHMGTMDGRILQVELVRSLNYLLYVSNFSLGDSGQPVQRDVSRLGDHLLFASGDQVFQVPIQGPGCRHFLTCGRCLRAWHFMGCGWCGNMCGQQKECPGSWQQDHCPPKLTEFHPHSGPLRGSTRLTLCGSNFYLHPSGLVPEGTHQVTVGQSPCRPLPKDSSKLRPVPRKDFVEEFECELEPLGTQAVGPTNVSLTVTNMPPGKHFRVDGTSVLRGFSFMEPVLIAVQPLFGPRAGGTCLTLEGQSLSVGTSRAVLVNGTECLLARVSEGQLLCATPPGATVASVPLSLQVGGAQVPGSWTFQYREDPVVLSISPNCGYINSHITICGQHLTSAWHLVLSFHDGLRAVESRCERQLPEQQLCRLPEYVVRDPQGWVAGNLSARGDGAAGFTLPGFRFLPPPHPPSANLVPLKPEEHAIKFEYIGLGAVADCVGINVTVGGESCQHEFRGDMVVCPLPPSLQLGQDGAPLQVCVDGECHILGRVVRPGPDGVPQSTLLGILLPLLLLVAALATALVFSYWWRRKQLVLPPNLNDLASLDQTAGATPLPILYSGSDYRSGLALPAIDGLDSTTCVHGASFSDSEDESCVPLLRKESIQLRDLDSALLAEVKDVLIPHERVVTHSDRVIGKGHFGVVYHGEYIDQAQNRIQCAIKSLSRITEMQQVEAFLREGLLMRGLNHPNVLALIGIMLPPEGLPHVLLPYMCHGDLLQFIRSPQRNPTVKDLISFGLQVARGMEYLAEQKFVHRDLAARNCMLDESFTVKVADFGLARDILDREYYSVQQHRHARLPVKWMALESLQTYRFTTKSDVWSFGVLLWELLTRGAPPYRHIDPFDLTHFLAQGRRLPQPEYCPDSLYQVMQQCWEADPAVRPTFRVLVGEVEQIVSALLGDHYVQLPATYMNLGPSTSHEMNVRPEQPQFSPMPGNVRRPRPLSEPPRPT
The target of assay [23] is Homeodomain-interacting protein kinase 2 (Homo sapiens, UniProt Q9H2X6).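 Also: measured within a kinome-wide kinase profiling panel, HIPK2 being one panel member.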
Assay [24] concerns the target Leukocyte tyrosine kinase receptor (Homo sapiens, UniProt P29376). The assay can be described thus: Navigating the Kinome. Panel member name: LTK.
Assay [25] has as its target Serine/threonine-protein kinase TAO1 (Homo sapiens, UniProt Q7L7X3).
Assay [26] addresses Cyclin-dependent kinase 9 (Homo sapiens, UniProt P50750).
Assay [27] concerns the target Dual specificity protein kinase CLK4 (Homo sapiens, UniProt Q9HAZ1).
The target of assay [28] is Cyclin-dependent kinase 7 (Homo sapiens, UniProt P50613).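 Also: value comes from a kinome-wide kinase profiling panel in which CDK7 is one member.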
The target of assay [29] is Dual specificity protein kinase CLK2 (Homo sapiens, UniProt P49760).
Sequence of Dual specificity protein kinase CLK2 (P49760 whole entry): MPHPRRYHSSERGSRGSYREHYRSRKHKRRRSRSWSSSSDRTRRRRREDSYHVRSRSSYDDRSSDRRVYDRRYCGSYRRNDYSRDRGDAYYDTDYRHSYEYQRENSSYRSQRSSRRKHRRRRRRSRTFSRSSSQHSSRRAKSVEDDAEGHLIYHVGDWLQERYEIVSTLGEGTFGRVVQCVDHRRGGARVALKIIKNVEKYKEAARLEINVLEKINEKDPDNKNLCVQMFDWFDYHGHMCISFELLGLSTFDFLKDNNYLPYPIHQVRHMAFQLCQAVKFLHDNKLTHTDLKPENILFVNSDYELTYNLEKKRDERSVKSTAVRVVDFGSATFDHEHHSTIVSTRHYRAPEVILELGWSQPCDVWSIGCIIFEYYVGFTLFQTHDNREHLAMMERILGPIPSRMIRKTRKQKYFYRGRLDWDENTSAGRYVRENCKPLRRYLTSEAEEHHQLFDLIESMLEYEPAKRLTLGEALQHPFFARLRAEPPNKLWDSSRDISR
In assay [30] the target is Tyrosine-protein kinase receptor TYRO3 (Homo sapiens, UniProt Q06418).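 Also: TYRO3 value obtained as one member of a kinome-wide profiling panel.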

The source made the active and inactive calls.

Sequence of Serine/threonine-protein kinase PLK1 (P53350 whole entry): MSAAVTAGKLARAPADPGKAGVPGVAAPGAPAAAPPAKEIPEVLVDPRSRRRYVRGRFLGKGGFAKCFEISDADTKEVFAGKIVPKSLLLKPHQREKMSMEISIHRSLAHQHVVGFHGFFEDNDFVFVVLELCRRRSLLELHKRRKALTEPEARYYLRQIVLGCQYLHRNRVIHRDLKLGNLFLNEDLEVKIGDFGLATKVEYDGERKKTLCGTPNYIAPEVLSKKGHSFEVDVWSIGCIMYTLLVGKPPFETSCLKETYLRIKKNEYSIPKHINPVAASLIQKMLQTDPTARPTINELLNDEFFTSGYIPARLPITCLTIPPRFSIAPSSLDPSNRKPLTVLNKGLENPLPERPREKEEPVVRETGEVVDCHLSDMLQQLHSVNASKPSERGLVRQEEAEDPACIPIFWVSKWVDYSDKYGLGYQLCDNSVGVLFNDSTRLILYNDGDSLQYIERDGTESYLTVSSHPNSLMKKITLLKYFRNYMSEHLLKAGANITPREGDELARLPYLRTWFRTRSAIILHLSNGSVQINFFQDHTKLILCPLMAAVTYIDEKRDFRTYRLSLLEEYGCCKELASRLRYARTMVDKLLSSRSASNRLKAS
Sequence of MAP kinase-activated protein kinase 2 (P49137 whole entry): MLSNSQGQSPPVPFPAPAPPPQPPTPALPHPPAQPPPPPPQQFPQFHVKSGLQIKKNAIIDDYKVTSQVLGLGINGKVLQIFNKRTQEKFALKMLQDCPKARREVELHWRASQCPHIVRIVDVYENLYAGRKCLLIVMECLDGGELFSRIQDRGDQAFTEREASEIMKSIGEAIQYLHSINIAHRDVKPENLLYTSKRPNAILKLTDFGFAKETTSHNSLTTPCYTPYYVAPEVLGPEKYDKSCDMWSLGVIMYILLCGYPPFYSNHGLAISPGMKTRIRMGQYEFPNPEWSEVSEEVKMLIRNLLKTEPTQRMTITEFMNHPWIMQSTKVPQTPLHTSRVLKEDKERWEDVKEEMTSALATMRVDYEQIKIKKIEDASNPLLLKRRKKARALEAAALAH
Sequence of Serine/threonine-protein kinase 17A (Q9UEE5 whole entry): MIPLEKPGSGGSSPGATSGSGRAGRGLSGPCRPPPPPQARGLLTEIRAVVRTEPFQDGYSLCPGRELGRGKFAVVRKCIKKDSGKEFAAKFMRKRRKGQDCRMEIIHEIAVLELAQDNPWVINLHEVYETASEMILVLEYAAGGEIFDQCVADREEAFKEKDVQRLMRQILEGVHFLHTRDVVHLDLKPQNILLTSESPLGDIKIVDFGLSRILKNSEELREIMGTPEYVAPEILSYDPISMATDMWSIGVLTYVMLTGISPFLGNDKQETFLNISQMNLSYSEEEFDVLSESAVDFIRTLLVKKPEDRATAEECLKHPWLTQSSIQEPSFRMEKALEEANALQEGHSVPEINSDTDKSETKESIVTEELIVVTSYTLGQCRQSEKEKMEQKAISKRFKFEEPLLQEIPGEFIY
Sequence of Ephrin type-A receptor 2 (P29317 whole entry): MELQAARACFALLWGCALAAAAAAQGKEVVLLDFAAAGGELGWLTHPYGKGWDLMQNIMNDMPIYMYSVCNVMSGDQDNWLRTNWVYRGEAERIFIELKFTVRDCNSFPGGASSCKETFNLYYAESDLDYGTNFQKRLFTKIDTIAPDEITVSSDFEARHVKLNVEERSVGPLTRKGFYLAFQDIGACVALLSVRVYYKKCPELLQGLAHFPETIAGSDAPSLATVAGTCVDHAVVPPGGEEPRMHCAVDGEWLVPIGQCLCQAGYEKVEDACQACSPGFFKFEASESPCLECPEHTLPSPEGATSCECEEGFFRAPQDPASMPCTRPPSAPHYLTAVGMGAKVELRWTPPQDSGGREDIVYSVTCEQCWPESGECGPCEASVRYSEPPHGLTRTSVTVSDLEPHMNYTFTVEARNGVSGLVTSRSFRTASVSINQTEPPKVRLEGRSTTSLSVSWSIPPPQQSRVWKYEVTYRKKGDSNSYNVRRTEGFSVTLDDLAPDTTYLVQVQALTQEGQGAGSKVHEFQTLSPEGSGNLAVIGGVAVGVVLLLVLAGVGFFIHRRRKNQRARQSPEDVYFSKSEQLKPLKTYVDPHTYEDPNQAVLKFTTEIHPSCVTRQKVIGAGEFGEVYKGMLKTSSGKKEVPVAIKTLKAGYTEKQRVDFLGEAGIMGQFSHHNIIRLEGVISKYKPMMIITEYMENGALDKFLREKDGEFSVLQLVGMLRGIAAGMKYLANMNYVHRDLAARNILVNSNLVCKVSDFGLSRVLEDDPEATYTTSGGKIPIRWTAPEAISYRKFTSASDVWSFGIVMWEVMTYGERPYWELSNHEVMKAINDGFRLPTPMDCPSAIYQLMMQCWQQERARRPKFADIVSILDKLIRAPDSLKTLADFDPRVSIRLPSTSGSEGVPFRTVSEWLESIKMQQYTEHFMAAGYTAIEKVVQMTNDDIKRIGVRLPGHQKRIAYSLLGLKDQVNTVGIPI
Sequence of Serine/threonine-protein kinase Chk2 (O96017 whole entry): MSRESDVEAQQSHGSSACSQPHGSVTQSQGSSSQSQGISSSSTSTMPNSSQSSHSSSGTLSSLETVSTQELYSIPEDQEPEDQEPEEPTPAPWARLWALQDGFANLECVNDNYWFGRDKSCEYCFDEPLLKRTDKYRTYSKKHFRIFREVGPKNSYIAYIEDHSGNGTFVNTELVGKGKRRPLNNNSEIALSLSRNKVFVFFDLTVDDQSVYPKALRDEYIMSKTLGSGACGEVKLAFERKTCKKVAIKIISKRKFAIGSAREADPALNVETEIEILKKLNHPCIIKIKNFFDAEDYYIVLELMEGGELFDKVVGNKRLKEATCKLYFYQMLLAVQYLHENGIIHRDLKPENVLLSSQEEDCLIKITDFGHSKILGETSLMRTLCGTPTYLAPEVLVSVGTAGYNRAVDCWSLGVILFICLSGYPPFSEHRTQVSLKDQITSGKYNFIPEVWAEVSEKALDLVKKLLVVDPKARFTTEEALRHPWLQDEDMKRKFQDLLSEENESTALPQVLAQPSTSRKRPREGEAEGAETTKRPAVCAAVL

`NC(COc1cncc(-c2cc3ccncc3s2)c1)Cc1c[nH]c2ccccc12` (stereo not given): the Ki (in general, the equilibrium dissociation constant of an inhibitor or competing ligand from its target) was > 3160 nM (inactive) in assay [1]; > 3980 nM (inactive) in assay [2]; 794 nM (active) in [3]; > 7940 nM (inactive) in [4]; 251 nM (active) in assay [5]; > 7940 nM (inactive) in assay [6]. The Ki in [7] is 398 nM (active); in assay [8], 158 nM (active); in [9] it was 316 nM (active); in assay [10] it was > 2510 nM (inactive); in [11] it was 158 nM (active); in assay [12], > 10000 nM (inactive). The Ki in assay [13] is > 1580 nM (inactive); in [14], > 3980 nM (inactive); in assay [15] it was 1580 nM (active); in assay [16], 251 nM (active); in assay [17] it was > 1580 nM (inactive); in [18] it was 200 nM (active).

With `CN(C)C1CCC(Nc2nc(Cl)cc(-c3c[nH]c4ncccc34)n2)CC1` (stereo not given), the Ki was 126 nM (active) in [19]; > 6310 nM (inactive) in assay [20]; > 6310 nM (inactive) in assay [21]; 79.4 nM (active) in assay [22]; 63.1 nM (active) in [23]; 501 nM (active) in [24]. Besides, the Ki is > 6310 nM (inactive) in assay [25]; 5.01 nM (active) in [26]; 2.51 nM (active) in assay [27]; 100 nM (active) in assay [28]; 39.8 nM (active) in assay [29]; > 3160 nM (inactive) in assay [30].
